The values below come from patent publication US7875647B2, “Heteroaryl-pyrazole derivatives as cannabinoid CB1 receptor antagonists” (Green Cross Corporation, priority 2006, dated 2011).

The target in the test is T1, Cannabinoid-1 receptor (CB1R) (Rattus norvegicus, UniProt P20272).
T1 construct: The tissue obtained from the brain of SD rats was homogenized; from tissue; host or cells: brain of SD rats (membrane pellet of the homogenate)
As to the kind of experiment: Cannabinoid-1 receptor (CB1R) binding affinity assay ([3H]CP-55940, rat CB-1 receptor binding protocol). The settings on record: brain tissue of SD rats, [3H]CP-55940, 30° C. 60 min; for pIC50: read-out: IC50. How it is done: The tissue obtained from the brain of SD rats was homogenized with a Dounce homogenate system in TME (50 mM Tris, 3 mM MgCl2 and 1 mM EDTA, pH 7.4) at 4° C., and the homogenate was centrifuged at 48,000 g for 30 min. at 4° C. The pellet was resuspended in 5 ml of TME and the suspension was divided into aliquots and stored at −70° C. until its use in the following assay.
The tissue concentrations were determined by Bradford protein analysis, and 148 μl of brain tissue of the required concentration was added to the plate. The plate was covered and placed in a 30° C. incubator for 60 min, and then transformed on GF/B filtermat pretreated in polyethylenimine (PEI) using a cell harvester. Each filter was washed five times and dried at 60° C. for 1 hr. Then, the degree of radioactivity retained by the filter was measured using Wallac Microbeta™ (PerkinElmer Life Sciences, Inc., Massachusetts, U.S.A.) and the activity of the compound for inhibiting CB1 receptor was determined therefrom.

pIC50: −log10 of the molar value. Where two headings read alike, the source gives them in different places.

T1 sequence (P20272 whole entry): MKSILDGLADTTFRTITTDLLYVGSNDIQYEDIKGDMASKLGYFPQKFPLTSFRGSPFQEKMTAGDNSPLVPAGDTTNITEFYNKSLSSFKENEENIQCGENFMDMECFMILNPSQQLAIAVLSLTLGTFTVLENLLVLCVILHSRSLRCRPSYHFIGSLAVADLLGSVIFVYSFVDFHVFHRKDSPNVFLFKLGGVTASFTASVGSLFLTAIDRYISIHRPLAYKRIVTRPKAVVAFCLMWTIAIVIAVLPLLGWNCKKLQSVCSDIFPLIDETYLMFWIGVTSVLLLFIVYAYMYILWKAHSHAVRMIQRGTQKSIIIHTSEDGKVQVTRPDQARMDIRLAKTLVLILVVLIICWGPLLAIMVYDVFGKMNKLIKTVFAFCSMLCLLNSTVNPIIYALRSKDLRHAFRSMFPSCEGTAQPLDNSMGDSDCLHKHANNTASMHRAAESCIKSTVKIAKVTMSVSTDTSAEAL

Take `Cc1c(-c2nnc(C(C)(C)C)s2)nn(-c2ccccc2Cl)c1-c1ccc(Cl)cc1` [Example 405, 2-tert-butyl-5-(1-(2-chlorophenyl)-5-(4-chlorophenyl)-4-methyl-1H-pyrazol-3-yl)-1,3,4-thiadiazole]: the pIC50 was 7.83. The same measure, in the same setting: for `CCc1cnc(-c2nn(-c3ccc(Cl)cc3Cl)c(-c3ccc(Cl)cc3)c2C)o1` [Example 640, 2-(5-(4-chlorophenyl)-1-(2,4-dichlorophenyl)-4-methyl-1H-pyrazol-3-yl)-5-ethyloxazole] the value was 7.29; for `Cc1c(-c2nnnn2C(C)C)nn(-c2ccc(Cl)cc2Cl)c1-c1ccc(Cl)cc1` [Example 575, 5-(5-(4-Chlorophenyl)-1-(2,4-dichlorophenyl)-4-methyl-1H-pyrazol-3-yl)-1-isopropyl-1H-tetrazole], 6.78. Same read-out and setting: for `Cc1c(-c2nnc(C3(c4ccc(Cl)cc4)CC3)o2)nn(-c2ccccc2Cl)c1-c1ccc(Cl)cc1` [Example 112, 2-(1-(2-chlorophenyl)-5-(4-chlorophenyl)-4-methyl-1H-pyrazol-3-yl)-5-(1-(4-chlorophenyl)cyclopropyl)-1,3,4-oxadiazole] the value was 8.13; for `CCc1c(-c2nnc(C3(CC)CC3)o2)nn(-c2ccc(Cl)cc2Cl)c1-c1ccc(Cl)cc1` [Example 278, 2-(5-(4-chlorophenyl)-1-(2,4-dichlorophenyl)-4-ethyl-1H-pyrazol-3-yl)-5-(1-ethylcyclopropyl)-1,3,4-oxadiazole], 7.77. On the same count and under the same terms, for `Cc1c(-c2ncc(C3CCCC3)s2)nn(-c2ccc(Cl)cc2Cl)c1-c1ccc(Cl)cc1` [Example 648, 2-(5-(4-chlorophenyl)-1-(2,4-dichlorophenyl)-4-methyl-1H-pyrazol-3-yl)-5-cyclopentylthiazole] the value was 7.16. For `CCc1c(-c2nnc(C(C)(C)CC)s2)nn(-c2ccc(Cl)cc2Cl)c1-c1ccc(Br)cc1` [Example 451, 2-(5-(4-bromophenyl)-1-(2,4-dichlorophenyl)-4-ethyl-1H-pyrazol-3-yl)-5-tert-pentyl-1,3,4-thiadiazole], the pIC50 is 7.71.

Consider `Cc1c(-c2nnc(C(C)(C)CO)o2)nn(-c2ccc(Cl)cc2Cl)c1-c1ccc(Cl)cc1` [Example 253, 2-(5-(5-(4-chlorophenyl)-1-(2,4-dichlorophenyl)-4-methyl-1H-pyrazol-3-yl)-1,3,4-oxadiazol-2-yl)-2-methylpropan-1-ol], for which the pIC50 was 7.01. Turning to `Cc1c(-c2nnc(NC3CCCCC3)s2)nn(-c2ccc(Cl)cc2Cl)c1-c1ccc(Cl)cc1` [Example 382, 5-(5-(4-chlorophenyl)-1-(2,4-dichlorophenyl)-4-methyl-1H-pyrazol-3-yl)-N-cyclohexyl-1,3,4-thiadiazol-2-amine], the pIC50 was 7.22. The same measure, in the same setting: to `CCc1c(-c2nnc(C3(C)CC3)o2)nn(-c2ccc(Cl)cc2Cl)c1-c1ccc(Br)cc1` [Example 276, 2-(5-(4-bromophenyl)-1-(2,4-dichlorophenyl)-4-ethyl-1H-pyrazol-3-yl)-5-(1-methylcyclopropyl)-1,3,4-oxadiazole] belongs 7.89; to `CCC(C)c1nnc(-c2nn(-c3ccc(Cl)cc3Cl)c(-c3cccc(Cl)c3)c2C)s1` (stereo not shown) [Example 435, 2-sec-butyl-5-(5-(3-chlorophenyl)-1-(2,4-dichlorophenyl)-4-methyl-1H-pyrazol-3-yl)-1,3,4-thiadiazole], 6.56.

With `Cc1c(-c2nnc(C(C)Cc3ccccc3)s2)nn(-c2ccc(Cl)cc2Cl)c1-c1ccc(Cl)cc1` (stereo not shown) [Example 385, 2-(5-(4-chlorophenyl)-1-(2,4-dichlorophenyl)-4-methyl-1H-pyrazol-3-yl)-5-(1-phenylpropan-2-yl)-1,3,4-thiadiazole], the negative logarithm of the IC50 (pIC50) was 7.47. `CC(F)c1c(-c2nnc(C(C)(C)C)s2)nn(-c2ccc(Cl)cc2Cl)c1-c1ccc(Br)cc1` (stereo not shown) [Example 530, 2-(5-(4-bromophenyl)-1-(2,4-dichlorophenyl)-4-(1-fluoroethyl)-1H-pyrazol-3-yl)-5-tert-butyl-1,3,4-thiadiazole] registered an IC50 (IC50(nM)) of 11.8 nM.

By pIC50 is commonly meant −log10 of the IC50, conventionally taken in molar units. In general, IC50 refers to the concentration at which inhibition is half-maximal. The low end stands for greater potency in that assay, the high end for weaker potency in that assay.
